# Data as given in article PMC10101151 (Bioorganic & medicinal chemistry letters, 2022).
# Tests used:
# E. coli AR-0493 = test: colistin MIC in absence or presence of RMA; assay type: cell-based; conditions: colistin alone; mcr-1
# E. coli AR-0538 = test: colistin MIC in absence or presence of RMA; assay type: cell-based; conditions: colistin alone; mcr-2
# S. Typhimurium AR-0539 = test: colistin MIC in absence or presence of RMA; assay type: cell-based, Salmonella Typhimurium; conditions: colistin alone; mcr-3
# S. Typhimurium AR-0635 = test: colistin MIC in absence or presence of RMA; assay type: cell-based, Salmonella Typhimurium; conditions: colistin alone; mcr-4
# K. pneumoniae AR-0497 = test: colistin MIC in absence or presence of RMA; assay type: cell-based; conditions: colistin alone; mcr-1
# A. baumannii AR-0310 = test: colistin MIC in absence or presence of RMA; assay type: cell-based; conditions: colistin alone
# P. aeruginosa AR-0239 = test: colistin MIC in absence or presence of RMA; assay type: cell-based; conditions: for fold reduction of colistin MIC: compound at 1 μg/mL, AR-0239
# P. aeruginosa AR-0257 = test: colistin MIC in absence or presence of RMA; assay type: cell-based; conditions: for fold reduction of colistin MIC: compound at 1 μg/mL, AR-0257
# [1] = system: 8 different MDR Gram-negative bacteria; test: colistin MIC across the panel of strains; assay type: cell-based; conditions: for Colistin MIC in the presence of compound, strains that contain the mcr genes: compound at 1 μg/mL
# mitochondria = conditions: in vitro and in mice for 6p; cited from earlier work
molecule,measurement,setting,value
Colistin,Colistin MIC,E. coli AR-0493,8 µg/mL
same,Colistin MIC,E. coli AR-0538,8 µg/mL
same,Colistin MIC,S. Typhimurium AR-0539,8 µg/mL
same,Colistin MIC,S. Typhimurium AR-0635,32 µg/mL
same,Colistin MIC,K. pneumoniae AR-0497,8 µg/mL
same,Colistin MIC,A. baumannii AR-0310,32 µg/mL
same,Colistin MIC,P. aeruginosa AR-0239; colistin alone,4 µg/mL
same,Colistin MIC,P. aeruginosa AR-0257; colistin alone,8 µg/mL
same,"Colistin MIC, range over all strains","[1]; colistin alone, 8 strains",4 to 32 µg/mL
Clc1cccc(Nc2nc3nonc3nc2Nc2cccc(Cl)c2)c1 [5l],fold reduction of colistin MIC,P. aeruginosa AR-0239,4 folds
same,fold reduction of colistin MIC,P. aeruginosa AR-0257,4 folds
same,"Colistin MIC in the presence of compound, strains that contain the mcr genes",[1],1 to 2 µg/mL
Clc1ccc(Nc2nc3nonc3nc2Nc2ccc(Cl)cc2)cc1 [5m],fold reduction of colistin MIC,P. aeruginosa AR-0239,4 folds
same,fold reduction of colistin MIC,P. aeruginosa AR-0257,4 folds
same,"Colistin MIC in the presence of compound, strains that contain the mcr genes",[1],1 to 2 µg/mL
Oc1nc2nonc2nc1Nc1ccc(OC(F)(F)F)cc1 [6p],mitochondrial uncoupler activity,mitochondria,one of the most potent uncouplers
FC(F)(F)Oc1ccc(Nc2nc3nonc3nc2Nc2ccc(OC(F)(F)F)cc2)cc1 [5p],mitochondrial uncoupler activity,mitochondria,poor uncoupler
